Assay results published in publication PMC6236115, “The 9H-Fluoren Vinyl Ether Derivative SAM461 Inhibits Bacterial Luciferase Activity and Protects Artemia franciscana From Luminescent Vibriosis” (Frontiers in Cellular and Infection Microbiology, 2018).

Biological target: T1, Vibrio fischeri luciferase (VfLuc) (Aliivibrio fischeri, UniProt P19907)
T1 construct: gene luxA; commercial Vibrio fischeri luciferase (Sigma-Aldrich L8507), with FMN reductases; with luciferase beta subunit (LuxB)
T1 sequence (P19907 1-354): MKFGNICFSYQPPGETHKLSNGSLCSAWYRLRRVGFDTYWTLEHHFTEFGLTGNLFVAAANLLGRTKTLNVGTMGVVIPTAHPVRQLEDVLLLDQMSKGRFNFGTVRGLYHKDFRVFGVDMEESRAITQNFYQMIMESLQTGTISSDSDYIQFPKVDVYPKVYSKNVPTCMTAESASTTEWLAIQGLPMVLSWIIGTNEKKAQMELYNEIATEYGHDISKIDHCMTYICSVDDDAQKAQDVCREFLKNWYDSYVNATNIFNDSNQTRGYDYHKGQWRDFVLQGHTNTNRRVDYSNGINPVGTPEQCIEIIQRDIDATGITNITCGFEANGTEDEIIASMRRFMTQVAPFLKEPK
T1 sequence (P19908 1-326 partner): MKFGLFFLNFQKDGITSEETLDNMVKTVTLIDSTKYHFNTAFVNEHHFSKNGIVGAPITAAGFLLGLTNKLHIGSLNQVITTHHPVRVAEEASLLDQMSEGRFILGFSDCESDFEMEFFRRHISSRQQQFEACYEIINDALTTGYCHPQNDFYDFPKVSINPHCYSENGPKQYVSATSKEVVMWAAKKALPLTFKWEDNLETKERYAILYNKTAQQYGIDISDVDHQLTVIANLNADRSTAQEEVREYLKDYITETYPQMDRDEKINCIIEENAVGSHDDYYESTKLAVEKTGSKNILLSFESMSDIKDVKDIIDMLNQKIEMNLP
Assay: luminescence enzyme assay, coupled with FMN reductase, 12-point titration
Assay type: biochemical

Q: Which IC50 does the source give for COC(=O)/C=C/OC1c2ccccc2-c2ccccc21 [SAM461, (E)-Methyl 3-((9H-fluoren-9-yl)oxy)acrylate] here?
A: 191 µM
